Reference: patent US20100247579A1, “THERAPEUTIC AGENT FOR CANCER” (priority 2007, published 2010)
Values after ≈ are worked out from the molar mass of the structure shown. Like-named read-outs stand apart in the source and are kept apart here.

How the values were obtained:
[1] = test system: lymphocytes derived from cancer patient No. PT009 expanded with OKT3 and CH-296; test: Resistance to anticancer agents, WST-1 GI50 on cultured lymphocytes of cancer patient No. PT009; assay type: cell-based, human; settings: Homo sapiens, Lymphocyte, day 10 of culture with OKT3 and CH-296, 20 hours with drug, read-out: GI50
Experimental: After that, the suspension was stained by the trypan blue staining method to calculate the viable cell count, and then subjected to each experiment.
(§1) On the other hand, the IL-2/5HRPMI was added to the control group in 50 μL/well each.
(§2) These culture plates were incubated at 37° C. for 20 hours in the presence of 5% CO2. After the incubation, WST-1 (Premix WST-1 Cell Proliferation Assay System, manufactured by Takara Bio Inc.) was added in 20 μL/well each to each well of the plate, and incubated in the presence of 5% CO2 at 37° C. for 4 hours. The plates after the incubation were centrifuged at 500×g at room temperature for 5 minutes. After the centrifugation, 100 μL of the supernatant was collected from each well, and the absorbance was measured at an absorption wavelength of 450 nm and a control wavelength of 630 nm [hereinafter referred to as the absorbance (450 nm-630 nm)] using a microplate reader (manufactured by Bio-Rad Laboratories, Inc., Model Number 680XR), and then the specific absorbance (450 nm-630 nm) was calculated according to the following formula.
(§3) Specific absorbance (450 nm-630 nm)=Absorbance of Test Cell Addition Group (450 nm-630 nm)−Absorbance of Control Group (450 nm-630 nm) Formula 2: […]

[2] = test system: expanded lymphocytes derived from a human healthy donor; test: Resistance to anticancer agents, WST-1 GI50 on cultured lymphocytes of a human healthy donor; assay type: cell-based; settings: Homo sapiens, Lymphocyte
Experimental: as §1, §2, §3
Here, a group where only OKT3 was immobilized to the culture equipment in the expansion of the lymphocytes was also set.
However, in the case of paclitaxel, a human AB type serum was used as a solvent for dilution, and for other drugs, 5HRPMI was used for dilution.

[3] = healthy donor lymphocytes expanded with OKT3 + CH-296, read-out: GI50 (μg/mL) Initial Stimulation OKT3 + CH-296
[4] = healthy donor lymphocytes expanded with OKT3 alone, read-out: GI50 (μg/mL) Initial Stimulation OKT3

SMILES	GI50 [1]	GI50 [2, 3]	GI50 [2, 4]
O=c1[nH]cc(F)c(=O)[nH]1 [Fluorouracil, fluorouracil]	639 µg/mL (≈ 4.91 mM)	3270 µg/mL	2290 µg/mL (≈ 17.6 mM)
CC(=O)O[C@H]1C(=O)[C@@]2(C)[C@H]([C@H](OC(=O)c3ccccc3)[C@]3(O)C[C@H](OC(=O)[C@H](O)[C@@H](NC(=O)c4ccccc4)c4ccccc4)C(C)=C1C3(C)C)[C@]1(OC(C)=O)CO[C@@H]1C[C@@H]2O [Paclitaxel, paclitaxel]	–	39.7 µg/mL	34.1 µg/mL (≈ 0.0399 mM)
